The source made the active and inactive calls. The rule behind the calls is not given here.
Tests used:
HCC827 [1] = test: Induction of mitochondrial dysfunction in human HCC827 cells assessed as reduction in glycolytic capacity at 0.125 to 5 uM incubated for 4 hrs by Seahorse XF96 extracellular flux analyzer; type: functional, cell-based; details: dose 0.125-5 µM
HCC827 [2] = test: Induction of cell cycle arrest in human HCC827 cells assessed as accumulation of cells at S phase at 0.1 uM incubated for 24 hrs by PI staining based flow cytometry analysis (reference value: 26.41%); type: functional
HCC827 [3] = test: Antiproliferative activity against human HCC827 cells assessed as cell viability at 1 uM measured after 48 hrs in presence of deferoxamine by MTT assay relative to control; type: functional; details: read-out: Activity
HCC827 [4] = test: Induction of mitochondrial dysfunction in human HCC827 cells assessed as appearance of vacuoles with damaged mitochondria at 1 uM after 24 hrs by TEM analysis; type: functional, cell-based
[5] = Toxicity in female BALB/c mouse assessed as histopathological changes in kidney at 30 mg/kg, ip measured for 7 days by H and E staining based analysis; type: organism-based; details: in vivo, 168 h, time 7 day
HCC827 [6] = test: Induction of apoptosis in human HCC827 cells assessed as late apoptotic cells at 0.5 uM measured after 48 hrs by annexin V and PI staining based flow cytometry analysis (reference value: 1.29%; type: functional
HCC827 [7] = test: Induction of cell cycle arrest in human HCC827 assessed as increase in p21 expression level at 0.25 to 5 uM measured after 24 hrs by Western blot analysis; type: functional, cell-based; details: dose 0.25-5 µM
HCC827 [8] = test: Antimetastatic activity against human HCC827 cells xenografted in female nude mouse model assessed as decrease in vimentin level at 5 to 10 mg/kg, ip by Western blot analysis; type: functional, organism-based; details: dose 5-10 mg/kg
HCC827 [9] = test: Induction of ferroptosis in human HCC827 cells assessed as decrease in GSH level incubated for 24 hrs by absorbance based analysis; type: functional, cell-based; details: dose 0.5-2 µM
HCC827 [10] = test: Induction of apoptosis in human HCC827 cells assessed as late apoptotic cells at 1 uM measured after 24 hrs by annexin V and PI staining based flow cytometry analysis (reference value: 2.18%); type: functional
HCC827 [11] = test: Induction of mitochondrial dysfunction in human HCC827 cells assessed as reduction in glycolytic reserve at 0.125 to 5 uM incubated for 4 hrs by Seahorse XF96 extracellular flux analyzer; type: functional, cell-based; details: dose 0.125-5 µM
HCC827 [12] = test: Antimetastatic activity against human HCC827 cells xenografted in female nude mouse model assessed as increase in cadherin level at 5 to 10 mg/kg, ip by Western blot analysis; type: functional, organism-based; details: dose 5-10 mg/kg
[13] = Antiproliferative activity against human BEAS-2B cells assessed as inhibition of cell growth measured after 72 hrs by MTT assay; type: toxicity, cell-based
HCC827 [14] = test: Induction of apoptosis in human HCC827 cells assessed as viable cells at 1 uM measured after 36 hrs by annexin V and PI staining based flow cytometry analysis (reference value: 95.10%); type: functional; details: read-out: Activity
BEAS-2B [15] = test: Induction of mitochondrial dysfunction in human BEAS-2B cells assessed as reduction in glycolytic capacity at 0.125 to 5 uM incubated for 4 hrs by Seahorse XF96 extracellular flux analyzer; type: functional, cell-based; details: dose 0.125-5 µM
[16] = Toxicity in female Kunming mouse assessed as animal death at 70 mg/kg, ip measured every two days for 7 days; type: organism-based; details: in vivo, 168 h, time 7 day
HCC827 [17] = test: Induction of ROS generation in human HCC827 cells at 1 uM incubated for 4 hrs in presence of NAC by DCFH-DA staining based by absorbance based laser confocal microscopic analysis; type: functional, cell-based
[18] = Drug accumulation in mitochondria of human HCC827 cells at 10 uM incubated for 5 mins; type: ADME; details: hcc827, 5 min
HCC827 [19] = test: Effect on COX1 expression in human HCC827 cells at 0.25 to 0.5 uM; type: functional, cell-based; details: dose 0.25-0.5 µM
HCC827 [20] = test: Induction of mitochondrial dysfunction in human HCC827 cells assessed as cytochrome C release in cytoplasm at 0.4 uM by laser scanning confocal fluorescence microscopic analysis; type: functional, cell-based; details: time 24-72 hrs
HCC827 [21] = test: Induction of apoptosis in human HCC827 cells assessed as early apoptotic cells at 0.5 uM measured after 48 hrs by annexin V and PI staining based flow cytometry analysis (reference value: 0.70%); type: functional
MCF7 = test: Antiproliferative activity against human MCF7 cells assessed as inhibition of cell growth measured after 72 hrs by MTT assay; type: functional, cell-based; details: MCF7, 72 h
HCC827 [22] = test: Induction of mitophagy in human HCC827 cells assessed as increase in LC3-II/LC-3-I ratio at 0.5 uM measured after 24 hrs by Western blot analysis; type: functional, cell-based
HCC827 [23] = test: Inhibition of cell migration in human HCC827 cells by wound healing assay; type: functional, cell-based; details: dose 0.05-0.1 µM
HEK-293T = test: Downregulation of […] expression level in human HEK293T cells harbouring PINK knockout at 0.25 to 0.5 uM; type: functional, cell-based; details: dose 0.25-0.5 µM
Mitochondrial membrane = test: Induction of mitochondrial membrane depolarization in human NCI-H1650 cells assessed as increase in JC-1 monomer ratio at 0.25 to 0.5 uM incubated for 4 hrs by JC-1 staining based confocal microscopy analysis; type: cell membranes; details: dose 0.25-0.5 µM
HCC827 [24] = test: Downregulation of TOMM20 expression level in human HCC827 cells at 0.5 uM incubated for 24 hrs in presence of Baf A1 by Western blot analysis; type: functional, cell-based
HCC827 [25] = test: Antiproliferative activity against human HCC827 cells assessed as cell viability preincubated with FMK followed by compound addition and measured after 48 hrs by MTT assay; type: functional, cell-based
[26] = Toxicity in male Kunming mouse assessed as animal death at 70 mg/kg, ip measured every two days for 7 days; type: organism-based; details: in vivo, 168 h, time 7 day
[27] = Toxicity in female Kunming mouse assessed as change in body weight at 50 mg/kg, ip measured every two days for 7 days; type: organism-based; details: in vivo, 168 h, time 7 day
HCC827 [28] = test: Induction of apoptosis in human HCC827 cells assessed as necrotic cells at 1 uM measured after 48 hrs by annexin V and PI staining based flow cytometry analysis (Rvb =0.84%); type: functional
BEAS-2B [29] = test: Inhibition of colony formation in human BEAS-2B cells at 0.05 to 0.1 uM incubated for 72 hrs by crystal violet staining based analysis; type: functional, cell-based; details: dose 0.05-0.1 µM
HCC827 [30] = test: Induction of apoptosis in human HCC827 cells assessed as viable cells at 1 uM measured after 48 hrs by annexin V and PI staining based flow cytometry analysis (reference value: 95.10%); type: functional; details: read-out: Activity
HCC827 [31] = test: Induction of mitochondrial dysfunction in human HCC827 cells assessed as cytochrome C release in cytoplasm at 0.4 uM measured after 72 hrs by laser scanning confocal fluorescence microscopic analysis; type: functional, cell-based
HCC827 [32] = test: Induction of cell cycle arrest in human HCC827 cells assessed as increase in p53 expression level at 0.25 to 5 uM measured after 24 hrs by Western blot analysis; type: functional, cell-based; details: dose 0.25-5 µM
HCC827 [33] = test: Inhibition of colony formation in human HCC827 cells incubated for 72 hrs by crystal violet staining based analysis; type: functional, cell-based; details: dose 50-100 nM
[34] = Toxicity in female nude mouse assessed as drug tolerance at 5 to 10 mg/kg, ip measured after 14 days; type: organism-based; details: in vivo, 336 h, dose 5-10 mg/kg, time 14 day
HCC827 [35] = test: Downregulation of HK-2 expression level in human HCC827 cells 0.5 uM by Western blot analysis; type: functional, cell-based; details: time 3-24 hrs

In the case of `Cc1ccc([P+](CCCCCCCCCCO)(c2ccc(C)cc2)c2ccc(C)cc2)cc1.[Br-]`, the Activity (HCC827 [1]) is reported as “Active”, the Activity (HCC827 [2]) is reported as 24.03% and the viability at 1 µM (HCC827 [3]) is reported as 51.4%. The Activity (HCC827 [4]) was “Active”, the Activity [5] was “Non-toxic” and the Activity (HCC827 [6]) was 7.12%. For the same compound, the Activity (HCC827 [7]) was “Active”, the Activity (HCC827 [8]) was “Active” and the Activity (HCC827 [9]) was “Dose-dependent-effect”. The Activity (HCC827 [10]) was 3.84%, the Activity (HCC827 [11]) was “Active” and the Activity (HCC827 [12]) was “Active”. The IC50 at 72 h [13] was 1420 nM, the viability at 1 µM (HCC827 [14]) was 98.5% and the Activity (BEAS-2B [15]) was “Minimal_effect”. For the same compound, the Activity [16] was “Toxic”, the Activity (HCC827 [17]) was “inactive” and the Drug uptake [18] was 93%. For the same compound, the Activity (HCC827 [19]) was “Active”, the Activity (HCC827 [20]) was “Time-dependent-effect” and the Activity (HCC827 [21]) was 2.34%. For the same compound, the IC50 (MCF7) was 160 nM, the Activity (HCC827 [22]) was “Active” and the inhibition (HCC827 [23]) was “Dose-dependent-effect”. The Activity (HEK-293T) was “inactive”, the Activity (Mitochondrial membrane) was “Active” and the Activity (HCC827 [24]) was “inactive”. For the same compound, the IC50 (HCC827 [25]) was 110 nM, the Activity [26] was “Toxic” and the Activity [27] was “Toxic”. For the same compound, the Activity (HCC827 [28]) was 2.02%, the inhibition (BEAS-2B [29]) was “Minimal_effect” and the viability at 1 µM (HCC827 [30]) was 91.9%. The Activity (HCC827 [31]) was “Active”, the Activity (HCC827 [32]) was “Active” and the inhibition (HCC827 [33]) was “Dose-dependent-effect”. The Activity [34] was “Non-toxic” and the Activity (HCC827 [35]) was “Time-dependent-effect”.
